Article PMC4546618, “Casitas B-Lineage Lymphoma RING Domain Inhibitors Protect Mice against High-Fat Diet-Induced Obesity and Insulin Resistance” (PLoS ONE, 2015)
Read-outs that look alike come from different tables or passages of the source. Where a SMILES comes first, the peptide text is derived from it. [ ]: non-standard residue; d: D form. Pro(trans-4-F) = O=C(O)[C@@H]1C[C@@H](F)CN1

Legend:
mice = assay: Acute toxicity in mice; type: in vivo; details: up to 15 mg/kg i.p.; for signs of acute toxicity: 72 hours; for death of animals: another 14 days following the initial examination; for H&E staining of livers, spleens and kidneys: end of experiment
Description: (§1) All experiments were approved by the institutional Animal Care and Use Committee (Chengdu Medical College, China). All experiments were carried out in 10-week-old male mice maintained on the C57BL/6 background. All the animals were kept on a 12-h light/dark cycle with free access to food and water.
The control group (n = 10) received vehicle only. Eight groups (10 mice each) were treated with increasing doses of either peptide 1, 3, 10, 34, 2, 60, 49, and 51 up to 15 mg/kg by i.p. Number of death, sedation, spontaneous motor activity, alertness, ptosis, dyspnea, convulsion, diarrhea, urination, postural reflex, piloerection, nociception, grooming, vocalization, rearing, climbing and aggression were observed every 12 hours for 72 h. Animals were maintained for another 14 days after the initial examination. We planned to sacrifice the animals if they show severe signs of pain or distress, a body weight loss in excess of 15% of its body weight, or a deterioration of the body condition score to BC2(-) or below. However, none of the animals qualified for the mentioned the symptoms. No animals died during the whole study. At the end of the experiment, animals were euthanized by CO2 asphyxiation followed by cervical dislocation, the livers, spleens and kidneys were collected and formalin-fixed paraffin-embedded for H&E staining.

mice fed a high-fat diet [1] = assay: High-fat diet-induced obesity: body weight, food intake, body composition, adipocyte volume; type: in vivo; details: daily i.p. 5 mg/kg; for percentage of perigonadal fat mass / adipocyte volume: 12 weeks; for percentage of perigonadal fat mass: NMR, vehicle 8 ± 0.8%; for adipocyte volume: adipocytes from epididymal fat pad, vehicle 510 ± 42 pL
Description: as §1
(§2) Animals (n = 90) were randomly assigned to one of the nine groups (Table 1). Animals were fed ad libitum with a high-fat diet (60% of caloric intake from fat (70% saturated fat), 20% from carbohydrates, and 20% from protein) before experiments and for another 12 weeks during the experiments. Food intake was measured manually on a daily basis. Eight groups of animals were treated with indicated peptides with a daily i.p. injection at 5 mg/kg and one group of animals were treated with vehicle.
Body composition was measured using nuclear magnetic resonance (NMR) technology at Chengdu College core facility. Epididymal fat pads were excised and adipocytes were isolated. Cells were then fixed using 2% OsO4 in PBS overnight at 37°C [2].

mice fed a high-fat diet [2] = assay: Glucose tolerance test after 12 weeks of treatment on high-fat diet; type: in vivo; details: overnight fasted mice, 2 g/kg glucose i.p., after 12 weeks daily i.p. 5 mg/kg on high-fat diet
Description: as §1, §2
After receiving 12 weeks of treatment as described above, glucose tolerance tests were performed in overnight fasted mice. Each mouse received a 2 g/kg glucose through i.p. Blood samples were obtained from the tail tip at 0, 30, 60, 90, and 120 min. Insulin concentrations were measured using mouse insulin Elisa kits (ChrystalChem) using mouse standards. Glucose levels were measured using a glucometer (Roche).

[3] = Pharmacokinetic studies, plasma concentration after i.p. injection; type: in vivo; details: mice, i.p. 4 mg/kg; for Cmax: male, C57BL/6, mouse, plasma, ip, read-out: maximum concentration in plasma
Description: as §1
Peptides (1, 3, 10, 34, 2, 60, 49, and 51) were dissolved in sterile aqueous 5% dextrose and administered to mice by i.p. injection (4 mg/kg). Blood samples were collected from the tail tip at 0, 0.5, 1, 6, 12, 18, 24 and 48 hours. Plasma samples were harvested by centrifugation and stored at -80°C until assayed. Peptide concentrations in plasma were determined by Reversed-Phase High-Performance Liquid Chromatography (RP-HPLC) with electrospray ionization mass spectrometric ([…]) detection. Samples were assayed with a series of 8 calibration standards of peptide in plasma at concentrations ranging from 50 to 6000 μg/L. Peptide concentrations were determined by comparing to the standards.

mice fed a high-fat diet [4] = assay: Indirect energy expenditure and physical activity measurement; type: in vivo; details: after 12 weeks daily i.p. 5 mg/kg on high-fat diet; for Oxygen consumption VO2: vehicle 4.15 ± 0.55; for Ambulatory day activity / Ambulatory night activity: photobeam break counts; for Ambulatory day activity: vehicle 2,069 ± 705; for Ambulatory night activity: vehicle 6,289 ± 1,216
Description: as §1, §2
After receiving 12 weeks of treatment as described above, rates of oxygen consumption (VO2) was measured using a four-chamber indirect calorimeter (Langguan, China, air flow of 0.5 l/min). A total of 2-hour measurement for each animal was conducted at 15-minuate intervals under room temperature (22°C). Ambulatory activity was estimated by counting the number of photobeam breaks in a three-sensor chamber instrument (Rui Pharm, China), and the cumulative ambulatory activity counts were recorded every hour. A total of 12 h-day time and 12 h-night activity were recorded for each animal.

Cbl (RING) protein = target: T1, Cbl (RING) protein (Homo sapiens, UniProt P22681); assay: Fluorescence polarization (FP) assay, competition with FITC-βA-PFKPP-NH2 probe; type: binding; details: probe FITC-βA-PFKPP-NH2 100 nmol/L, Cbl (RING) protein 3 μmol/L, PBS pH 7.4
T1 construct: including the linker and RING domain (codon 358–457); GST (Glutathione S-Transferase); made in house
T1 sequence (P22681 358-457): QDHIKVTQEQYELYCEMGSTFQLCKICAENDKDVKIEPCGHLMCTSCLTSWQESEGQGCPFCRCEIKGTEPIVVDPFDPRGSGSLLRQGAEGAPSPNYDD
Method in brief: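 GST-tagged c-Cbl linker plus RING domain (codons 358–457), 3 μmol/L, was mixed with 100 nmol/L FITC-βA-PFKPP-NH2 probe in PBS pH 7.4 with 0.01% Triton X-100. Peptides were added as 10–0.078 μmol/L solutions (half-fold dilutions). Polarization was read at ex 485/em 538 nm, and ΔmP, Kd and Ki were estimated from fitted data.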

| Compound | signs of acute toxicity (mice) | death of animals (mice) | H&E staining of livers, spleens and kidneys (mice) | body weight gain vs vehicle, parental and negative control peptide groups (mice fed a high-fat diet [1]; 12-week feeding period) | percentage of perigonadal fat mass (mice fed a high-fat diet [1]) | adipocyte volume (mice fed a high-fat diet [1]) | blood insulin levels compared to the vehicle group (mice fed a high-fat diet [2]) | glucose tolerance compared to the vehicle group (mice fed a high-fat diet [2]) | Cmax ([3]; observed in 60 min) | plasma concentrations compared to the parental peptides 1 and 2 ([3]; at each time point after 1 hour) | Oxygen consumption VO2 (mice fed a high-fat diet [4]) | Ambulatory day activity (mice fed a high-fat diet [4]) | Ambulatory night activity (mice fed a high-fat diet [4]) | Ki (Cbl (RING) protein) | Cmax ([3]; observed in 30 min) |
| --- | --- | --- | --- | --- | --- | --- | --- | --- | --- | --- | --- | --- | --- | --- | --- |
| CC(=O)N[C@@H](CCCCN)C(=O)N1C[C@H](F)C[C@H]1C(=O)N[C@@H](C)C(=O)N[C@H](C(=O)N[C@@H](CCCCN)C(N)=O)[C@@H](C)O [Peptide 51, Ac-K(t)ATK-NH2] (Ac-K[Pro(trans-4-F)]ATK-NH2) | did not show vital signs of acute toxicity | None of the animals died | does not show any sign of injuries | significant differences in body weight gain | 4.0 ± 0.8% | 250 ± 40 pL | significant reduction in blood insulin levels | better glucose tolerance | 4620 ng/mL | greater plasma concentrations | 5.99 ± 0.95 mL/g/h | 4,953 ± 1,014 per 12 h | 19,251 ± 3,058 per 12 h | 3.8 ± 1.1 µM |  |
| Ac-PFKPP-NH2 [Peptide 1, Ac-PFKPP-NH2] | did not show vital signs of acute toxicity | None of the animals died | does not show any sign of injuries |  | 6.2 ± 0.7% | 430 ± 35 pL |  | not statistically significant |  |  | 3.95 ± 0.22 mL/g/h | 2,152 ± 865 per 12 h | 5,941 ± 1,355 per 12 h | 7.2 ± 0.5 µM | 3080 ng/mL |
